The values that follow come from ChEMBL document CHEMBL4619758, “Discovery of 3-({5-Chloro-1-[3-(methylsulfonyl)propyl]-1H-indol-2-yl}methyl)-1-(2,2,2-trifluoroethyl)-1,3-dihydro-2H-imidazo[4,5-c]pyridin-2-one (JNJ-53718678), a Potent and Orally Bioavailable Fusion Inhibitor of Respiratory Syncytial Virus” (J Med Chem, 2020).

Data set [1] is described as follows: Cytotoxicity against human HeLa cells assessed as reduction in cell viability after 3 days by ATPlite assay. For orientation: ATP-based viability assays read luminescence as a measure of living cells.
Data set [2] is described as follows: Metabolic stability in human liver microsomes assessed as compound metabolized after 15 mins. The class given is ADME, Microsome. The conditions noted are these: read-out: Drug metabolism.
Data set [3] is described as follows: Metabolic stability in rat liver microsomes assessed as compound metabolized after 15 mins. The note with it: read-out: Drug metabolism. The class given is ADME, Microsome. A general note: Microsomes from liver hold many membrane-bound enzymes, among them those of drug oxidation.
Data set [4] in a line: Metabolic stability in dog liver microsomes assessed as compound metabolized after 15 mins. The class given is ADME, Canis lupus familiaris, Microsome. The note with it: read-out: Drug metabolism.
Data set [5] is described as follows: Clearance in Sprague-Dawley rat plasma at 2.5 mg/kg, iv. The class given is ADME, organism-based.
A short description of data set [6]: Ratio of AUC (0 to last) in lung to plasma of Sprague-Dawley rat at 2.5 mg/kg, iv or 10 mg/kg, po. The class given is ADME, organism-based. The note with it: lung and plasma, read-out: Ratio AUC.
Data set [7] in a line: Oral bioavailability in Sprague-Dawley rat at 10 mg/kg. The class given is ADME, organism-based. The conditions noted are these: in vivo.
Data set [8] in a line: Clearance in dog plasma at 1 mg/kg, iv. The class given is ADME, organism-based, Canis lupus familiaris.
The nature of data set [9]: Protein binding in human plasma assessed as unbound fraction. The class given is ADME, cell-free.
For data set [10], the system named is Respiratory syncytial virus. Kind of data set: Antiviral activity against RSV Long infected in po dosed cotton rat model assessed as reduction in viral titer in broncho alveolar lavage fluid pretreated for 1 hr followed by viral infection measured after 4 days by plaque reduction assay. The class given is functional, organism-based. The conditions noted are these: for EC50: human respiratory syncytial virus.

Data set [11] deals with Respiratory syncytial virus. Kind of data set: Antiviral activity against RSV Long infected in po dosed cotton rat model assessed as reduction in viral titer in lung lavage fluid pretreated for 1 hr followed by viral infection measured after 4 days by plaque reduction assay. The class given is functional, organism-based. The note with it: for EC50: human respiratory syncytial virus. A general note: Plaque reduction counts the foci of infection that form in a cell layer.

Another data set has as its target Cytochrome P450 3A4 (Homo sapiens, UniProt P08684). Put plainly: Time-dependent inhibition of CYP3A4 in human liver microsomes using testosterone as substrate. The class given is ADME.
The nature of data set [12]: Aqueous solubility of the compound. The conditions noted are these: buffer. The class given is physicochemical.
A short description of data set [13]: Oral bioavailability in dog at 5 mg/kg. The class given is ADME, organism-based, Canis lupus familiaris. The note with it: in vivo.
Data set [14] is described as follows: Clearance in dog plasma at 1 mg/kg, iv relative to liver blood flow. The class given is ADME, organism-based, Canis lupus familiaris. The note with it: in vivo.
Data set [15] in a line: Clearance in Sprague-Dawley rat at 2 mg/kg, iv administered as single dose. The class given is ADME, organism-based. The note with it: in vivo.
Data set [16] can be described thus: Volume of distribution at steady state in Sprague-Dawley rat at 2 mg/kg, iv administered as single dose. The class given is ADME, organism-based. The note with it: in vivo, read-out: Vdss.
The nature of data set [17]: Cmax in Sprague-Dawley rat at 10 mg/kg, po administered as single dose. The class given is ADME, organism-based. The conditions noted are these: in vivo. Further details: dose 10 mg/kg, route oral; call rule not given here.
Data set [18] in a line: AUC in Sprague-Dawley rat at 10 mg/kg, po administered as single dose. The conditions noted are these: in vivo. The class given is ADME, organism-based.
The nature of data set [19]: Absolute oral bioavailability in Sprague-Dawley rat at 10 mg/kg administered as single dose. The class given is ADME, organism-based. The note with it: in vivo.
Data set [20] can be described thus: Ratio of AUC (0 to last) in lung to plasma of Sprague-Dawley rat at 10 mg/kg, po administered as single dose. The class given is ADME, organism-based. The conditions noted are these: lung and plasma, read-out: Ratio AUC.
The nature of data set [21]: Clearance in Sprague-Dawley rat at 2 mg/kg, iv administered as single dose relative to liver blood flow. The class given is ADME, organism-based. The note with it: in vivo.
A further data set addresses CYP3A4 (Homo sapiens, UniProt P08684). Put plainly: Time-dependent inhibition of CYP3A4 in human liver microsomes assessed as ratio of IC50 in presence and absence of NADPH using testosterone as substrate. The class given is ADME. The conditions noted are these: probe testosterone, read-out: Ratio IC50.

Values after ≈ are worked out from the molar mass of the structure shown.

Sequence of CYP3A4 (P08684 whole entry): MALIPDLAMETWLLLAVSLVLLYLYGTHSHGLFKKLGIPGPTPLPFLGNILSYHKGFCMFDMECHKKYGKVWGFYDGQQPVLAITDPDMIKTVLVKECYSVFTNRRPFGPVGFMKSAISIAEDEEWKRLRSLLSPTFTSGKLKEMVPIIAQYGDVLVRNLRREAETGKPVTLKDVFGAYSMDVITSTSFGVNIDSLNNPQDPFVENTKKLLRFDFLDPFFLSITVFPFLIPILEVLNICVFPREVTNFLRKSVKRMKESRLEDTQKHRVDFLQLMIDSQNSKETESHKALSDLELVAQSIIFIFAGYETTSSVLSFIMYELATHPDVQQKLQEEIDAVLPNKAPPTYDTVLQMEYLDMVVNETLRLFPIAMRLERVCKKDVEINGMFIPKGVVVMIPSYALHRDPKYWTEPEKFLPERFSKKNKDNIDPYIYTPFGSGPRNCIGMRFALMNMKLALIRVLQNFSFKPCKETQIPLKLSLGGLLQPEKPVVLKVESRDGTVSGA
Sequence of Cytochrome P450 3A4 (P08684 whole entry): as above

Broadly, the CC50 is the concentration that lowers cell viability or growth by half. In general, clearance refers to the rate of elimination divided by the concentration. As a reminder, the bioavailability is the share of a dose that reaches the circulation, judged against a reference dose that is usually intravenous. A high value points to much systemic uptake. By fraction unbound is commonly meant the share of the substance not bound to proteins or other matrix. The term EC50 denotes the concentration at which the effect is half-maximal. Regarding `CS(=O)(=O)CCCn1c(Cn2c(=O)n(CC(F)(F)F)c3ccncc32)cc2cc(Cl)ccc21` [RILEMATOVIR], the CC50 at 72 h in data set [1] was above 50 µM. The values for the metabolised at 0.25 h in data set [2], in [3] and in data set [4] were 1%, 60% and 28%, respectively. The clearance in data set [5] was 65 mL/min/kg; in data set [8] it was 8.5 mL/min/kg. Besides, the Kp in data set [6] was found to be 3.5. This compound also yielded a bioavailability in data set [7] of 42%. In addition, the fraction unbound in data set [9] is 0.06. The Activity result in data set [10] and in data set [11] was “Dose-dependent effect” each time. In addition, the EC50 in data set [10] turned out to be 0.075 µg/mL (≈ 0.15 µM); in [11], 0.081 µg/mL (≈ 0.162 µM). Further, the TDI result at Cytochrome P450 3A4 was “Not Active”.
Consider `CS(=O)(=O)c1ccc(-n2c(=O)n(Cc3cc4cc(Cl)ccc4n3CCCC#N)c3cnccc32)cc1`, for which, in data set [1], the CC50 at 72 h was above 50 µM. Further, the metabolised at 0.25 h in data set [2] is 9%. For the same compound, in data set [12], the solubility entry is recorded as “Insoluble”.
On to `COc1ccc(-n2c(=O)n(Cc3cc4cc(Cl)ccc4n3CCCC#N)c3cnccc32)cc1OC`, for which, in [1], the CC50 at 72 h was above 50 µM. For the same compound, the metabolised at 0.25 h was found to be 19% in [2], 74% in data set [3] and 56% in data set [4]. In addition, the clearance in [5] is 31.7 mL/min/kg; in data set [8] it was 14.3 mL/min/kg. The Kp in data set [6] turned out to be 2.5. The bioavailability is 32% in data set [7] and 26% in data set [13]. Moreover, in data set [9], the fraction unbound was determined as 0.008. Also, the Activity result in data set [10] and in data set [11] was “Dose-dependent effect” throughout. Further, the EC50 is 0.18 µg/mL (≈ 0.359 µM) in [10] and 0.157 µg/mL (≈ 0.313 µM) in data set [11]. For the same compound, in [14], the CL stood at 50%.
One may read the Cmax as the maximum level reached in the sampled fluid or tissue. Usually AUC stands for concentration integrated over time. A lower AUC goes with less exposure. Turning to `O=c1n(Cc2cc3cnccc3n2CCCC(F)(F)F)c2cnccc2n1C1CC1`, the CC50 at 72 h in [1] is above 50 µM. The figures for the metabolised at 0.25 h in data set [2] and in [3] were 21% and 80%, respectively. This compound also showed a clearance in [15] of 75 mL/min/kg. Also, the Vd in data set [16] was found to be 3.3 L/kg. The compound also displayed a Cmax in [17] of 532 ng/mL. For the same compound, the AUC in data set [18] turned out to be 545 ng·h/mL. The same compound had a bioavailability in data set [19] of 28%. Also, the Kp in [20] was 11. Also, the fraction unbound in [9] is 0.472. Also, the CL in [21] is above 100%.
With `O=c1n(Cc2nc3nc(Cl)ccc3n2CCCC(F)(F)F)c2cnccc2n1C1CC1`, the CC50 at 72 h in data set [1] is above 50 µM. Besides, the metabolised at 0.25 h in [2] came out at 0%; in data set [3], 80%. In addition, in data set [15], the clearance was 23.3 mL/min/kg. Further, the Vd in data set [16] was found to be 0.82 L/kg. Further, in [17], the Cmax came to 1690 ng/mL. The compound further gave an AUC in data set [18] of 3370 ng·h/mL. The compound further gave a bioavailability in [19] of 46%. Also, the Kp in data set [20] worked out at 0.4. In data set [9], the fraction unbound stood at 0.3.
Consider `COc1ccc(-n2c(=O)n(Cc3cc4cc(Cl)ccc4n3CCCC#N)c3cnccc32)cc1`, for which the CC50 at 72 h in data set [1] was above 50 µM. In addition, the metabolised at 0.25 h in data set [2] was determined as 20%; in [3], 40%; in data set [4], 96%. The clearance was 16.2 mL/min/kg in [5] and 24.8 mL/min/kg in data set [8]. The Kp in [6] was 1.3. In addition, the figures for the bioavailability in data set [7] and in data set [13] were 86% and 9%, respectively. The fraction unbound in [9] worked out at 0.005. Also, the Activity entry in data set [10] and in [11] was “Dose-dependent effect” each time. The EC50 in data set [10] was determined as 0.499 µg/mL (≈ 1.06 µM); in data set [11], 0.121 µg/mL (≈ 0.256 µM). Further, in [14], the CL is given as 90%.
`CS(=O)(=O)CCCn1c(Cn2c(=O)n(C3CC3)c3ccncc32)cc2cc(Cl)ccc21`: the CC50 at 72 h in [1] was above 50 µM. Further, the metabolised at 0.25 h in data set [2] was 18%. Further, the IC50 shift on CYP3A4 is 18.
Turning to `N#CCCCn1c(Cn2c(=O)n(C3CC3)c3ccncc32)cc2cc(Cl)ccc21`, in [1], the CC50 at 72 h was above 50 µM. Besides, the metabolised at 0.25 h stood at 17% in data set [2] and 80% in [3]. Besides, in data set [15], the clearance was 36.7 mL/min/kg. Moreover, in data set [16], the Vd was 1.5 L/kg. In data set [17], the Cmax stood at 1230 ng/mL. The same compound registered an AUC in [18] of 3300 ng·h/mL. Besides, the bioavailability in [19] turned out to be 73%. In addition, in data set [20], the Kp came to 1.6. Also, the fraction unbound in data set [9] stood at 0.036.
